According to PMC8185074, “Anchor extension: a structure-guided approach to design cyclic peptides targeting enzyme active sites” (Nature Communications, 2021):
Like-named read-outs stand apart in the source and are kept apart here. Peptide text beside a SMILES is read from it.

Assays:
Format in all cases: biochemical
HDAC2 [1] = molecular target: T1, HDAC2 (Homo sapiens, UniProt Q92769); assay: HDAC2 inhibition, full IC50 measurement (Reaction Biology; fluorogenic p53 peptide RHKK(Ac)AMC)
T1 construct: purchased Reaction Biology Corporation (assay run by the CRO)
T1 sequence (Q92769 whole entry): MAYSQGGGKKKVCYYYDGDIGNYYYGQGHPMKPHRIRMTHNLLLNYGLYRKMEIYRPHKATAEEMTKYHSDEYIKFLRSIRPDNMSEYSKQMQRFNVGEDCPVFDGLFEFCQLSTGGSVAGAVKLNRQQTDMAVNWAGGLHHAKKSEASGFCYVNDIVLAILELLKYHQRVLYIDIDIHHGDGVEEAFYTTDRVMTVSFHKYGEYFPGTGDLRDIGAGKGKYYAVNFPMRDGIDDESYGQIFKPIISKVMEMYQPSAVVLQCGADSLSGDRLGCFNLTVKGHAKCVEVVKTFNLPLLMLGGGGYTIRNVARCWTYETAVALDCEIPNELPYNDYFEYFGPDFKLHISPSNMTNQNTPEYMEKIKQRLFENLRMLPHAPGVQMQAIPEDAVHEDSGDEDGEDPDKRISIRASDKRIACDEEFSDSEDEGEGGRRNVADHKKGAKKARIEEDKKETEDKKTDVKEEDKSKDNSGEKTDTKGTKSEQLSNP
Method in brief: (§1)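 Test peptides were dispensed acoustically with enzyme in 50 mM Tris-HCl pH 8.0, 137 mM NaCl, 2.7 mM KCl, 1 mM MgCl2, 1 mg/ml BSA and 1% DMSO. After adding 50 μM RHKK(Ac)AMC, reactions ran 1 h at 30 °C, then developer was added.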

HDAC1 = molecular target: T2, HDAC1 (Homo sapiens, UniProt Q13547); assay: HDAC1 inhibition, full IC50 measurement (Reaction Biology; fluorogenic p53 peptide RHKK(Ac)AMC); details: t1/t2 replicates
T2 construct: purchased Reaction Biology Corporation (assay run by the CRO)
T2 sequence (Q13547 whole entry): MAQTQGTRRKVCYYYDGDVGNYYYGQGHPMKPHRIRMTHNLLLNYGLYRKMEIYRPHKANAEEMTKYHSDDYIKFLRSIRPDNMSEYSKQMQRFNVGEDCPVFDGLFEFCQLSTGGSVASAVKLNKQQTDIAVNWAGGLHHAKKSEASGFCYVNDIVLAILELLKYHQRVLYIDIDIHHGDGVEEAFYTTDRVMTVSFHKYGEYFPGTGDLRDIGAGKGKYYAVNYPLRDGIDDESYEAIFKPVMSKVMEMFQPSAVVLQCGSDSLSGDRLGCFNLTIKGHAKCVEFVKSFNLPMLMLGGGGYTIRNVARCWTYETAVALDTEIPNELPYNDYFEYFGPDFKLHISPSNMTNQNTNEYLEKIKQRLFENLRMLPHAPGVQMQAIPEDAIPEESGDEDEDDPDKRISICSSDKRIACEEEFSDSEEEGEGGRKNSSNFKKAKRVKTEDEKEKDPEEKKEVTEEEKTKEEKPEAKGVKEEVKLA
Method in brief: as §1

HDAC3 = molecular target: T3, HDAC3 (Homo sapiens, UniProt O15379); assay: HDAC3 inhibition, full IC50 measurement (Reaction Biology; fluorogenic p53 peptide RHKK(Ac)AMC)
T3 construct: purchased Reaction Biology Corporation (assay run by the CRO)
T3 sequence (O15379 whole entry): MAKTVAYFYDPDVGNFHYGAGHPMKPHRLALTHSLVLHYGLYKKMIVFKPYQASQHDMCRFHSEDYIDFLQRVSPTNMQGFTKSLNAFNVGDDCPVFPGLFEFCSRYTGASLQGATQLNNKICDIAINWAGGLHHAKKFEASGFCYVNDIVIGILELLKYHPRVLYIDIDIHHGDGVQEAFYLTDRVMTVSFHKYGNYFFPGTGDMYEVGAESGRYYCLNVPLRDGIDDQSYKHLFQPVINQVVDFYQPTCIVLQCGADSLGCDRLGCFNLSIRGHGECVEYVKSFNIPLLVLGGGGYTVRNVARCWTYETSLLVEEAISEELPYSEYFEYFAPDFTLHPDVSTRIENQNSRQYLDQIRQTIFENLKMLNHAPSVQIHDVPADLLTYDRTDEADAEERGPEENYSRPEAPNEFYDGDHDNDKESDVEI
T3 sequence (Q9Y618 395-489 partner limits assumed): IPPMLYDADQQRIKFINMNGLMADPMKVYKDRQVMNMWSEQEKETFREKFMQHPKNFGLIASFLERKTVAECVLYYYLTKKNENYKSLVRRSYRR
Method in brief: as §1

HDAC8 = molecular target: T4, HDAC8 (Homo sapiens, UniProt Q9BY41); assay: HDAC8 inhibition, full IC50 measurement (Reaction Biology; fluorogenic p53 peptide RHKK(Ac)AMC); details: t1/t2 replicates
T4 construct: purchased Reaction Biology Corporation (assay run by the CRO)
T4 sequence (Q9BY41 1-377): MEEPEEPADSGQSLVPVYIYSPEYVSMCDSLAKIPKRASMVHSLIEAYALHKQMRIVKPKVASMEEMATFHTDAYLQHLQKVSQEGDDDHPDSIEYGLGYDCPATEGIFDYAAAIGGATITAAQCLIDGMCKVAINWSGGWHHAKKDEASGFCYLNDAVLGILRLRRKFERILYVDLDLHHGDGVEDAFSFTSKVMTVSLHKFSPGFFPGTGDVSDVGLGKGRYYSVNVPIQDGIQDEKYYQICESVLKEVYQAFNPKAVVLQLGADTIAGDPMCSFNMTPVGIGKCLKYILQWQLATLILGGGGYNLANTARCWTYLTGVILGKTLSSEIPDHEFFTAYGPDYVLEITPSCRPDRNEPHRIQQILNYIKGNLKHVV
Method in brief: as §1

HDAC2 [2] = molecular target: T1, HDAC2; assay: Initial HDAC2 IC50 estimate (BPS Biosciences HDAC fluorogenic assay kit)
Method in brief: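 Inhibition measured by kit-based fluorogenic HDAC activity assays, with each point in duplicate or triplicate. Values come from a full 1 µM–100 pM series (1:10 steps) or are range estimates from just 20 nM and 200 nM.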

[3] = peptide conc. 1.00E-05 M, listed as des1.1.1_t1
[4] = peptide conc. 1.00E-05 M, listed as des1.1.1_t2
[5] = peptide conc. 1.11E-06 M, listed as des1.1.1_t1
[6] = peptide conc. 1.11E-06 M, listed as des1.1.1_t2
[7] = peptide conc. 1.23E-07 M, listed as des1.1.1_t1
[8] = peptide conc. 1.23E-07 M, listed as des1.1.1_t2
[9] = peptide conc. 1.37E-08 M, listed as des1.1.1_t1
[10] = peptide conc. 1.37E-08 M, listed as des1.1.1_t2
[11] = peptide conc. 1.52E-09 M, listed as des1.1.1_t1
[12] = peptide conc. 1.52E-09 M, listed as des1.1.1_t2
[13] = peptide conc. 3.33E-06 M, listed as des1.1.1_t1
[14] = peptide conc. 3.33E-06 M, listed as des1.1.1_t2
[15] = peptide conc. 3.70E-07 M, listed as des1.1.1_t1
[16] = peptide conc. 3.70E-07 M, listed as des1.1.1_t2
[17] = peptide conc. 4.12E-08 M, listed as des1.1.1_t1
[18] = peptide conc. 4.12E-08 M, listed as des1.1.1_t2
[19] = peptide conc. 4.57E-09 M, listed as des1.1.1_t1
[20] = peptide conc. 4.57E-09 M, listed as des1.1.1_t2
[21] = peptide conc. 5.08E-10 M, listed as des1.1.1_t1
[22] = peptide conc. 5.08E-10 M, listed as des1.1.1_t2

NCCCC[C@H]1NC(=O)[C@H](CCC(N)=O)NC(=O)[C@H](CCC(=O)O)NC(=O)[C@@H]2CCCN2C(=O)[C@H](CC(N)=O)NC(=O)[C@H](CCCCCS)NC(=O)CNC(=O)[C@H](Cc2c[nH]c3ccccc23)NC1=O [des1.1.1, SHA-Asn-Pro-Glu-Gln-dLys-Trp-Gly] (HELM PEPTIDE1{E.Q.[dK].W.G.[O=C([C@H](CCCCCS)N[*:1])[*:2]].N.P}$PEPTIDE1,PEPTIDE1,1:R1-8:R2$$$V2.0)
2-Selectivity: fold potency for HDAC2 over HDAC6 (HDAC2 [1]): 0.17 fold
HDAC2 activity raw data (signal) (HDAC2 [1]; Conc. 1.00E-05 M, t1): 51389
HDAC2 activity raw data (signal) (HDAC2 [1]; Conc. 1.11E-06 M, t1): 176321
HDAC2 activity raw data (signal) (HDAC2 [1]; Conc. 1.23E-07 M, t1): 517115
HDAC2 activity raw data (signal) (HDAC2 [1]; Conc. 1.23E-07 M, t2): 516299
HDAC2 activity raw data (signal) (HDAC2 [1]; Conc. 1.37E-08 M, t1): 670648
HDAC2 activity raw data (signal) (HDAC2 [1]; Conc. 1.37E-08 M, t2): 890041
HDAC2 activity raw data (signal) (HDAC2 [1]; Conc. 1.52E-09 M, t1): 768698
HDAC2 activity raw data (signal) (HDAC2 [1]; Conc. 1.52E-09 M, t2): 986775
HDAC2 activity raw data (signal) (HDAC2 [1]; Conc. 3.33E-06 M, t1): 91275
HDAC2 activity raw data (signal) (HDAC2 [1]; Conc. 3.70E-07 M, t1): 346891
HDAC2 activity raw data (signal) (HDAC2 [1]; Conc. 4.12E-08 M, t1): 680634
HDAC2 activity raw data (signal) (HDAC2 [1]; Conc. 4.12E-08 M, t2): 655155
HDAC2 activity raw data (signal) (HDAC2 [1]; Conc. 4.57E-09 M, t1): 833526
HDAC2 activity raw data (signal) (HDAC2 [1]; Conc. 4.57E-09 M, t2): 959526
HDAC2 activity raw data (signal) (HDAC2 [1]; Conc. 5.08E-10 M, t1): 761364
HDAC2 activity raw data (signal) (HDAC2 [1]; Conc. 5.08E-10 M, t2): 1054303
HDAC1 activity raw data (signal) (HDAC1; [3]): 15449
HDAC1 activity raw data (signal) (HDAC1; [4]): 6031
HDAC1 activity raw data (signal) (HDAC1; [5]): 152129
HDAC1 activity raw data (signal) (HDAC1; [6]): 83277
HDAC1 activity raw data (signal) (HDAC1; [7]): 509662
HDAC1 activity raw data (signal) (HDAC1; [8]): 396625
HDAC1 activity raw data (signal) (HDAC1; [9]): 648866
HDAC1 activity raw data (signal) (HDAC1; [10]): 876365
HDAC1 activity raw data (signal) (HDAC1; [11]): 760286
HDAC1 activity raw data (signal) (HDAC1; [12]): 1050479
HDAC1 activity raw data (signal) (HDAC1; [13]): 53777
HDAC1 activity raw data (signal) (HDAC1; [14]): 31360
HDAC1 activity raw data (signal) (HDAC1; [15]): 243491
HDAC1 activity raw data (signal) (HDAC1; [16]): 191722
HDAC1 activity raw data (signal) (HDAC1; [17]): 677146
HDAC1 activity raw data (signal) (HDAC1; [18]): 657201
HDAC1 activity raw data (signal) (HDAC1; [19]): 723834
HDAC1 activity raw data (signal) (HDAC1; [20]): 981941
HDAC1 activity raw data (signal) (HDAC1; [21]): 712167
HDAC1 activity raw data (signal) (HDAC1; [22]): 1083035
HDAC3 activity raw data (signal) (HDAC3; Conc. 1.00E-05 M, t1): 45806
HDAC3 activity raw data (signal) (HDAC3; Conc. 1.00E-05 M, t2): 14609
HDAC3 activity raw data (signal) (HDAC3; Conc. 1.11E-06 M, t1): 200334
HDAC3 activity raw data (signal) (HDAC3; Conc. 1.11E-06 M, t2): 152988
HDAC3 activity raw data (signal) (HDAC3; Conc. 1.23E-07 M, t1): 623414
HDAC3 activity raw data (signal) (HDAC3; Conc. 1.23E-07 M, t2): 515219
HDAC3 activity raw data (signal) (HDAC3; Conc. 1.37E-08 M, t1): 834270
HDAC3 activity raw data (signal) (HDAC3; Conc. 1.37E-08 M, t2): 1063632
HDAC3 activity raw data (signal) (HDAC3; Conc. 1.52E-09 M, t1): 943875
HDAC3 activity raw data (signal) (HDAC3; Conc. 1.52E-09 M, t2): 1416606
HDAC3 activity raw data (signal) (HDAC3; Conc. 3.33E-06 M, t1): 128090
HDAC3 activity raw data (signal) (HDAC3; Conc. 3.33E-06 M, t2): 52786
HDAC3 activity raw data (signal) (HDAC3; Conc. 3.70E-07 M, t1): 393148
HDAC3 activity raw data (signal) (HDAC3; Conc. 3.70E-07 M, t2): 276336
HDAC3 activity raw data (signal) (HDAC3; Conc. 4.12E-08 M, t1): 758574
HDAC3 activity raw data (signal) (HDAC3; Conc. 4.12E-08 M, t2): 884895
HDAC3 activity raw data (signal) (HDAC3; Conc. 4.57E-09 M, t1): 936051
HDAC3 activity raw data (signal) (HDAC3; Conc. 4.57E-09 M, t2): 1217433
HDAC3 activity raw data (signal) (HDAC3; Conc. 5.08E-10 M, t1): 935427
HDAC3 activity raw data (signal) (HDAC3; Conc. 5.08E-10 M, t2): 1315263
HDAC8 activity raw data (signal) (HDAC8; [3]): 258617
HDAC8 activity raw data (signal) (HDAC8; [4]): 8333740
HDAC8 activity raw data (signal) (HDAC8; [5]): 532680
HDAC8 activity raw data (signal) (HDAC8; [6]): 26455057
HDAC8 activity raw data (signal) (HDAC8; [7]): 587120
HDAC8 activity raw data (signal) (HDAC8; [8]): 38904462
HDAC8 activity raw data (signal) (HDAC8; [9]): 802422
HDAC8 activity raw data (signal) (HDAC8; [10]): 44804049
HDAC8 activity raw data (signal) (HDAC8; [11]): 956971
HDAC8 activity raw data (signal) (HDAC8; [12]): 49754188
HDAC8 activity raw data (signal) (HDAC8; [13]): 289575
HDAC8 activity raw data (signal) (HDAC8; [14]): 18105294
HDAC8 activity raw data (signal) (HDAC8; [15]): 559845
HDAC8 activity raw data (signal) (HDAC8; [16]): 34440414
HDAC8 activity raw data (signal) (HDAC8; [17]): 916202
HDAC8 activity raw data (signal) (HDAC8; [18]): 43441318
HDAC8 activity raw data (signal) (HDAC8; [19]): 928568
HDAC8 activity raw data (signal) (HDAC8; [20]): 47580068
HDAC8 activity raw data (signal) (HDAC8; [21]): 688133
HDAC8 activity raw data (signal) (HDAC8; [22]): 50930211
IC50 (HDAC2 [2]; Supp. Table 4, rough estimates, for promising hits full measurements, read-out: HDAC2 activity (initial values for HDAC2 IC50)): 192 nM
IC50 (HDAC2 [2]; Supplementary Dataset 2, read-out: HDAC2 activity (initial activity)): 271 nM
